Experimental data reported in publication PMC3663118, “Structure of the protein core of translation initiation factor 2 in apo, GTP-bound and GDP-bound forms” (Acta Crystallographica Section D: Biological Crystallography, 2013).

How the values were obtained:
[1] = target: T1, IF2 (protein core, residues 1-363) (Thermus thermophilus, UniProt P48515); test: X-ray crystal structure, […] A, crystal soaking; format: binding; conditions: 5 mM GDP added to the crystallization drop; Mg2+ bound; pH 7.5 protein buffer; G-domain P-loop site
T1 construct: gene infB; proteolysed during crystallization to residues 1-363 (40 kDa; N domain, G domain, domain II, start of domain III); one molecule per asymmetric unit
T1 sequence (P48515 1-363): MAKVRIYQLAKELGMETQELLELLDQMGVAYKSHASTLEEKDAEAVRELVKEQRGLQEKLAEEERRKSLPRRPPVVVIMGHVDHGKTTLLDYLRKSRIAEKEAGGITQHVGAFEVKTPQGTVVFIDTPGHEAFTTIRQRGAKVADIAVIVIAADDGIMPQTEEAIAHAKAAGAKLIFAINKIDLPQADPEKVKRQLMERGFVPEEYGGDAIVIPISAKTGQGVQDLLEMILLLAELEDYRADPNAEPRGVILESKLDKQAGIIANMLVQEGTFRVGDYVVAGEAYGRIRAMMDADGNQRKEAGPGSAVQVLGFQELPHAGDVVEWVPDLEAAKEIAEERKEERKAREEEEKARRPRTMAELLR

[2] = target: T1, IF2 (protein core, residues 1-363); test: X-ray crystal structure, […] A, crystal soaking; format: binding; conditions: 30 s soak with GTP-containing cryoprotectant; Mg2+ bound; pH 7.5 protein buffer; G-domain P-loop site; GTP occupancy 0.68

Compound | X-ray crystal structure, 2.3 A, crystal soaking [1] | X-ray crystal structure, 2.8 A, crystal soaking [2]
Nc1nc2c(ncn2[C@@H]2O[C@H](COP(=O)(O)OP(=O)(O)O)[C@@H](O)[C@H]2O)c(=O)[nH]1 [GDP] | 4b3x, 4b48, 4b47 for the apo, GTP and GDP complexes, respectively | –
Nc1nc2c(ncn2[C@@H]2O[C@H](COP(=O)(O)OP(=O)(O)OP(=O)(O)O)[C@@H](O)[C@H]2O)c(=O)[nH]1 [GTP] | – | 4b3x, 4b48, 4b47 for the apo, GTP and GDP complexes, respectively
